The numbers were not newly measured in patent US6909006B1, “Cyclopropylindole derivatives” (priority 1999, dated 2005), which cites them from elsewhere.

For the data set, the system named is tumour cells growing in vitro.

For the compound `COc1c(O)c2c(c3cc(C(=O)N4CCc5c4c(O)c(OC)c4[nH]c(C(=O)N6CC7CC78C6=CC(=O)c6[nH]cc(C)c68)cc54)[nH]c13)CCN2C(N)=O` (stereo not shown) [CC-1065], the “IC50s in tumour cells growing in vitro” value is “low pM range”.
